Measurements published in the supplement of paper PMC10307832.

Experiments:
Assay in all cases: relative viability (nuclei count vs DMSO), 5 days (fraction); higher = more cells survive
[1] = test system: 201T
Method in brief: (§1)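 Lung cancer cell lines were pin-tool dosed in 1536-well plates on the day after seeding, with either a lone drug or a fixed anchor-drug dose plus five library-drug doses (not always all listed) in √10 steps. Nuclei were counted on 4× images after 5 days. Relative viability is the ratio of treated-well to vehicle-well nuclei counts, with each value a median of duplicate plates.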

[2] = test system: BEN
Method in brief: as §1

[3] = test system: COR-L 105
Method in brief: as §1

[4] = test system: EKVX
Method in brief: as §1

[5] = test system: EPLC-272H
Method in brief: as §1

[6] = test system: H3255
Method in brief: as §1

[7] = test system: HCC-44
Method in brief: as §1

[8] = test system: HCC-827
Method in brief: as §1

[9] = test system: HOP-62
Method in brief: as §1

[10] = test system: LCLC-97TM1
Method in brief: as §1

[11] = test system: LOU-NH91
Method in brief: as §1

[12] = test system: LU99A
Method in brief: as §1

[13] = test system: NCI-H1395
Method in brief: as §1

[14] = test system: NCI-H1437
Method in brief: as §1

[15] = test system: NCI-H1666
Method in brief: as §1

[16] = test system: NCI-H1975
Method in brief: as §1

[17] = test system: NCI-H2085
Method in brief: as §1

[18] = test system: NCI-H2087
Method in brief: as §1

[19] = test system: NCI-H358
Method in brief: as §1

[20] = test system: NCI-H647
Method in brief: as §1

[21] = test system: PC-3 [JPC-3]
Method in brief: as §1

[22] = test system: SW 1573
Method in brief: as §1

## O=C(O)c1ccc(-c2c[nH]c3ncc(-c4ccccc4)cc23)cc1C1CCCC1 + CS(=O)(=O)N1CCN(Cc2cc3nc(-c4cccc5[nH]ncc45)nc(N4CCOCC4)c3s2)CC1 [Pictilisib] (partner 1 µM)
[1]; first compound 0.04 µM
  relative viability: 0.695
[1]; first compound 0.1265 µM
  relative viability: 0.619
[1]; first compound 0.4 µM
  relative viability: 0.608
[1]; first compound 1.265 µM
  relative viability: 0.656
[2]; first compound 0.04 µM
  relative viability: 0.546
[2]; first compound 0.1265 µM
  relative viability: 0.609
[2]; first compound 0.4 µM
  relative viability: 0.584
[2]; first compound 1.265 µM
  relative viability: 0.555
[3]; first compound 0.04 µM
  relative viability: 0.435
[3]; first compound 0.1265 µM
  relative viability: 0.429
[3]; first compound 0.4 µM
  relative viability: 0.497
[3]; first compound 1.265 µM
  relative viability: 0.388
[4]; first compound 0.04 µM
  relative viability: 0.462
[4]; first compound 0.1265 µM
  relative viability: 0.524
[4]; first compound 0.4 µM
  relative viability: 0.468
[4]; first compound 1.265 µM
  relative viability: 0.374
[5]; first compound 0.04 µM
  relative viability: 0.381
[5]; first compound 0.1265 µM
  relative viability: 0.318
[5]; first compound 0.4 µM
  relative viability: 0.266
[5]; first compound 1.265 µM
  relative viability: 0.342
[6]; first compound 0.04 µM
  relative viability: 0.502
[6]; first compound 0.1265 µM
  relative viability: 0.529
[6]; first compound 0.4 µM
  relative viability: 0.441
[6]; first compound 1.265 µM
  relative viability: 0.462
[7]; first compound 0.04 µM
  relative viability: 0.697
[7]; first compound 0.1265 µM
  relative viability: 0.676
[7]; first compound 0.4 µM
  relative viability: 0.668
[7]; first compound 1.265 µM
  relative viability: 0.56
[8]; first compound 0.04 µM
  relative viability: 1.12
[8]; first compound 0.1265 µM
  relative viability: 1.12
[8]; first compound 0.4 µM
  relative viability: 0.965
[8]; first compound 1.265 µM
  relative viability: 0.859
[9]; first compound 0.04 µM
  relative viability: 1.05
[9]; first compound 0.1265 µM
  relative viability: 0.884
[9]; first compound 0.4 µM
  relative viability: 0.686
[9]; first compound 1.265 µM
  relative viability: 0.66
[10]; first compound 0.04 µM
  relative viability: 0.228
[10]; first compound 0.1265 µM
  relative viability: 0.183
[10]; first compound 0.4 µM
  relative viability: 0.192
[10]; first compound 1.265 µM
  relative viability: 0.17
[11]; first compound 0.04 µM
  relative viability: 0.513
[11]; first compound 0.1265 µM
  relative viability: 0.517
[11]; first compound 0.4 µM
  relative viability: 0.512
[11]; first compound 1.265 µM
  relative viability: 0.52
[12]; first compound 0.04 µM
  relative viability: 0.321
[12]; first compound 0.1265 µM
  relative viability: 0.315
[12]; first compound 0.4 µM
  relative viability: 0.308
[12]; first compound 1.265 µM
  relative viability: 0.278
[13]; first compound 0.04 µM
  relative viability: 0.769
[13]; first compound 0.1265 µM
  relative viability: 0.691
[13]; first compound 0.4 µM
  relative viability: 0.625
[13]; first compound 1.265 µM
  relative viability: 0.555
[14]; first compound 0.04 µM
  relative viability: 0.489
[14]; first compound 0.1265 µM
  relative viability: 0.446
[14]; first compound 0.4 µM
  relative viability: 0.371
[14]; first compound 1.265 µM
  relative viability: 0.263
[15]; first compound 0.04 µM
  relative viability: 0.406
[15]; first compound 0.1265 µM
  relative viability: 0.439
[15]; first compound 0.4 µM
  relative viability: 0.451
[15]; first compound 1.265 µM
  relative viability: 0.251
[16]; first compound 0.04 µM
  relative viability: 0.256
[16]; first compound 0.1265 µM
  relative viability: 0.297
[16]; first compound 0.4 µM
  relative viability: 0.309
[16]; first compound 1.265 µM
  relative viability: 0.271
[17]; first compound 0.04 µM
  relative viability: 0.431
[17]; first compound 0.1265 µM
  relative viability: 0.427
[17]; first compound 0.4 µM
  relative viability: 0.536
[17]; first compound 1.265 µM
  relative viability: 0.568
[18]; first compound 0.04 µM
  relative viability: 0.963
[18]; first compound 0.1265 µM
  relative viability: 1.09
[18]; first compound 0.4 µM
  relative viability: 0.758
[18]; first compound 1.265 µM
  relative viability: 0.712
[19]; first compound 0.04 µM
  relative viability: 0.39
[19]; first compound 0.1265 µM
  relative viability: 0.364
[19]; first compound 0.4 µM
  relative viability: 0.371
[19]; first compound 1.265 µM
  relative viability: 0.255
[20]; first compound 0.04 µM
  relative viability: 0.418
[20]; first compound 0.1265 µM
  relative viability: 0.38
[20]; first compound 0.4 µM
  relative viability: 0.478
[20]; first compound 1.265 µM
  relative viability: 0.344
[21]; first compound 0.04 µM
  relative viability: 0.784
[21]; first compound 0.1265 µM
  relative viability: 0.799
[21]; first compound 0.4 µM
  relative viability: 0.757
[21]; first compound 1.265 µM
  relative viability: 0.768
[22]; first compound 0.04 µM
  relative viability: 0.638
[22]; first compound 0.1265 µM
  relative viability: 0.621
[22]; first compound 0.4 µM
  relative viability: 0.512
[22]; first compound 1.265 µM
  relative viability: 0.317
